According to patent publication US9308179B2, “Long circulating nanoparticles for sustained release of therapeutic agents” (BIND Therapeutics, Inc., priority 2008, dated 2016):
Read-outs that look alike come from different tables or passages of the source. Marks after values point to notes of the source that are not given here.

Key:
[1] = Acute dose range finding study in Sprague-Dawley rats; format: in vivo; conditions: 7 days
Method: Sixty Sprague-Dawley rats (30/sex) were assigned to 10 dose groups (3 rats/sex/group) and were administered a single dose of either docetaxel encapsulated in nanoparticles (5.7, 7.5, 10, 15 or 30 mg/kg body weight) or conventional docetaxel (5.7, 7.5, 10, 15 or 30 mg/kg body weight).

[2] = Pharmacokinetics of docetaxel nanoparticles in primates; format: in vivo, non human primates; parameters: Cmax/D / AUC/D: unit not given beside the values; conditions: for AUC / Cl / Vz / half-life / Cmax: 30 minute IV infusion; for half-life: in vivo
Method: 1 male and 1 female were used per dose group. The dosing day was 1 day and the formulations were administered by 30 minute IV infusion at 25 mg/m^2 docetaxel or 50 mg/m^2 docetaxel (animals were randomized and then dosed with 50 mg/m2 on day 29 and PK, hematology and clinical chemistry were measured for 21 days). At the end of the study, PK, hematology and clinical chemistry collected over a 21 day period were assessed. FIG. 12 depicts the results of male (M) and female (F) PNP.

[3] = 5 mg/kg, cited from earlier work
[4] = Tumor docetaxel concentration after a single dose in human tumor xenograft model (LNCaP); format: in vivo, SCID mice; conditions: male, SCID, mouse
Method: Male severe combined immunodeficiency (SCID) mice were subcutaneously inoculated with human LNCaP prostate cancer cells. Three to four weeks after inoculation, the mice were assigned to different treatment groups such that the average tumor volume in each group was 300 mm^3. At this time, a single intravenous (IV) dose of 50 mg/kg docetaxel was administered as either docetaxel encapsulated in nanoparticles or conventional docetaxel. The test subjects were sacrificed 2 hour or 12 hour post-dose. The tumors from each group were excised and assayed for docetaxel using liquid chromatography-mass spectrometry (LC-MS).

[5] = Single dose pharmacokinetic study in Sprague-Dawley rats; format: in vivo; conditions: male, rat
Method: Six- to eight-week old male Sprague-Dawley rats were administered a single bolus dose (5 mg/kg of docetaxel) of docetaxel encapsulated in nanoparticles or conventional docetaxel via a tail vein. The dose groups consisted of six rats each. Blood was drawn at 0.083, 0.5, 1, 2, 3, 4, 6, and 24 hours post-dosing and processed to plasma. The concentration of total docetaxel in plasma was measured by a liquid chromatography-mass spectrometry (LC-MS) method following extraction with methyl tert-butyl ether (MTBE).

MX-1 breast tumors = test: Tumor accumulation of docetaxel nanoparticles in MX-1 breast tumors; format: in vivo, mice; conditions: 10 mg/kg, 24 hours after injection, LC/MS/MS
Method: Mice were then injected with 10 mg/kg of the test article, then euthanized 24 hours later and the tumors were removed and analyzed for docetaxel content using LC/MS/MS. Results are depicted in FIG. 12.

[6] = tested on: human LNCaP prostate cancer cells; test: Anti-tumor activity after repeated doses in human tumor xenograft model (LNCaP); format: in vivo, SCID mice; conditions: Q2D for four doses, eight day holiday, another four doses; FIG. 7
Method: Male severe combined immunodeficiency (SCID) mice were subcutaneously inoculated with human LNCaP prostate cancer cells. Three to four weeks after inoculation, the mice were assigned to different treatment groups such that the average tumor volume in each group was 250 mm^3. Subsequently, the mice were treated every other day (Q2D) for four doses, with an eight day holiday, followed by another four doses at the Q2D schedule.

[7] = Tissue distribution of radioactivity in rats after IV administration; format: in vivo, Sprague-Dawley rats
Method: Six- to eight-week old male Sprague-Dawley rats were administered a single bolus intravenous dose of one of the following: (1) docetaxel encapsulated in nanoparticles in which the ligand of the PLA-PEG-lys(urea)glu targeting polymer was ^14C-labeled, (2) docetaxel encapsulated in nanoparticles in which the encapsulated docetaxel was ^14C-labeled, (3) ^14C-labeled conventional docetaxel.
Blood was drawn at 1, 3, 6, 12, and 24 hours post-dosing and processed to plasma. Immediately following blood collection, the rats were euthanized by CO2 asphyxiation and tissues were immediately collected, blotted, weighed, and frozen on dry ice. Tissue samples were stored frozen (approximately −70° C.) until analysis for radioactivity by liquid scintillation (LS) counting.

[8] = plasma, 5 mg/kg single IV bolus

CC(=O)O[C@@]12CO[C@@H]1C[C@H](O)[C@@]1(C)C(=O)[C@H](O)C3=C(C)[C@@H](OC(=O)[C@H](O)[C@@H](NC(=O)OC(C)(C)C)c4ccccc4)C[C@@](O)([C@@H](OC(=O)c4ccccc4)[C@H]21)C3(C)C [Conventional Docetaxel, docetaxel]
survival to scheduled necropsy ([1]; 5.7-30 mg/kg single dose): All test subjects survived
piloerection, female rats affected ([1]; female, Sprague-Dawley, rat, in vivo, 10 mg/kg): 1/9
piloerection, male rats affected ([1]; male, Sprague-Dawley, rat, in vivo, 10 mg/kg): 5/9
AUC/D ([2]; 25 mg/m2, F): 109
Cmax/D ([2]; 25 mg/m2, F): 23.8
AUC ([2]; 25 mg/m2, F): 2714 ng·h/mL
Cl ([2]; 25 mg/m2, F): 9213 mL/hr/m2
Vz ([2]; 25 mg/m2, F): 412186 mL/m2
AUC/D ([2]; 25 mg/m2, M): 102
Cmax/D ([2]; 25 mg/m2, M): 14.6
Cl ([2]; 25 mg/m2, M): 9794 mL/hr/m2
Vz ([2]; 25 mg/m2, M): 253783 mL/m2
AUC/D ([2]; 50 mg/m2, F): 72
Cmax/D ([2]; 50 mg/m2, F): 16.7
AUC ([2]; 50 mg/m2, F): 3599 ng·h/mL
Cl ([2]; 50 mg/m2, F): 13893 mL/hr/m2
Vz ([2]; 50 mg/m2, F): 788340 mL/m2
AUC/D ([2]; 50 mg/m2, M): 76.5
Cmax/D ([2]; 50 mg/m2, M): 24.2
Cl ([2]; 50 mg/m2, M): 13073 mL/hr/m2
Vz ([2]; 50 mg/m2, M): 743682 mL/m2
half-life ([2]; female, monkey, 25 mg/m2, F): 31 h
half-life ([2]; female, monkey, 50 mg/m2, F): 39 h
Cmax ([2]; female, monkey, plasma, 25 mg/m2, F): 596 ng/mL
Cmax ([2]; female, monkey, plasma, 50 mg/m2, F): 835 ng/mL
half-life ([2]; male, monkey, 25 mg/m2, M): 18 h
half-life ([2]; male, monkey, 50 mg/m2, M): 39 h
Cmax ([2]; male, monkey, plasma, 25 mg/m2, M): 364 ng/mL
AUC ([2]; male, monkey, plasma, 25 mg/m2, M, read-out: AUC): 2550 ng·h/mL
Cmax ([2]; male, monkey, plasma, 50 mg/m2, M): 1210 ng/mL
AUC ([2]; male, monkey, plasma, 50 mg/m2, M, read-out: AUC): 3280 ng·h/mL
AUC0-∞ [3]: 910 ng·h/mL
CL [3]: 91.7 mL/min/kg
Cmax [3]: 4,100 ng/mL
t1/2 ([3]; study duration was 6 hours): 0.8^b h
tmax ([3]; tmax equals the first sampling time): 2 min
concentration at 2 h ([4]; 2 h after single IV dose of 50 mg/kg docetaxel): 12900 ± 7900 ng/g
concentration at 12 h ([4]; 12 h after single IV dose of 50 mg/kg docetaxel): 3600 ± 2100 ng/g
Cmax ([5]; 5 mg/kg single IV bolus, total docetaxel in plasma): 600 ng/mL
AUC(0-inf) [5, 8]: 623 ng·h/mL
clearance [5, 8]: 38.8 mL/min/kg
tmax ([5]; plasma, 5 mg/kg single IV bolus, tmax equals the first sampling time): 5 min
half-life ([5]; plasma, iv, 5 mg/kg): 4.4 h
percent of injected dose in the tumor (MX-1 breast tumors): 3%
effect on tumor volume [6]: appreciable reduction in tumor volume

CC(=O)O[C@@]12CO[C@@H]1C[C@H](O)[C@@]1(C)C(=O)[C@H](O)C3=C(C)[C@@H](OC(=O)[C@H](O)[C@@H](NC(=O)OC(C)(C)C)c4ccccc4)C[C@@](O)([C@@H](OC(=O)c4ccccc4)[C@H]21)C3(C)C [Conventional ^14C-Docetaxel, docetaxel]
Radioactivity in Bone Marrow ([7]; 1 h after IV administration): 97 ± 4.2 nCi/g
Radioactivity in Heart ([7]; 1 h after IV administration): 71 ± 2.5 nCi/g
Radioactivity in Large Intestine ([7]; 1 h after IV administration): 54 ± 3.6 nCi/g
Radioactivity in Liver ([7]; 1 h after IV administration): 78 ± 15 nCi/g
Radioactivity in Lungs ([7]; 1 h after IV administration): 82 ± 9.6 nCi/g
Radioactivity in Plasma ([7]; 1 h after IV administration): 4.9 ± 0.4 nCi/mL
Radioactivity in Small Intestine ([7]; 1 h after IV administration): 517 ± 99 nCi/g
Radioactivity in Spleen ([7]; 1 h after IV administration): 100 ± 9.4 nCi/g
Radioactivity in Bone Marrow ([7]; 3 h after IV administration): 83 ± 1.0 nCi/g
Radioactivity in Heart ([7]; 3 h after IV administration): 39 ± 1.5 nCi/g
Radioactivity in Large Intestine ([7]; 3 h after IV administration): 166 ± 37 nCi/g
Radioactivity in Liver ([7]; 3 h after IV administration): 49 ± 7.3 nCi/g
Radioactivity in Lungs ([7]; 3 h after IV administration): 66 ± 0.7 nCi/g
Radioactivity in Plasma ([7]; 3 h after IV administration): 1.9 ± 0.2 nCi/mL
Radioactivity in Small Intestine ([7]; 3 h after IV administration): 122 ± 43 nCi/g
Radioactivity in Spleen ([7]; 3 h after IV administration): 81 ± 7.5 nCi/g
Radioactivity in Bone Marrow ([7]; 6 h after IV administration): 78 ± 1.9 nCi/g
Radioactivity in Heart ([7]; 6 h after IV administration): 33 ± 1.3 nCi/g
Radioactivity in Large Intestine ([7]; 6 h after IV administration): 185 ± 82 nCi/g
Radioactivity in Liver ([7]; 6 h after IV administration): 49 ± 11 nCi/g
Radioactivity in Lungs ([7]; 6 h after IV administration): 993 ± 1605 nCi/g
Radioactivity in Plasma ([7]; 6 h after IV administration): 1.6 ± 0.5 nCi/mL
Radioactivity in Small Intestine ([7]; 6 h after IV administration): 62 ± 5.2 nCi/g
Radioactivity in Spleen ([7]; 6 h after IV administration): 82 ± 4.6 nCi/g
Radioactivity in Bone Marrow ([7]; 12 h after IV administration): 62 ± 9.4 nCi/g
Radioactivity in Heart ([7]; 12 h after IV administration): 28 ± 1.7 nCi/g
Radioactivity in Large Intestine ([7]; 12 h after IV administration): 83 ± 18 nCi/g
Radioactivity in Liver ([7]; 12 h after IV administration): 55 ± 7.4 nCi/g
Radioactivity in Lungs ([7]; 12 h after IV administration): 1438 ± 1218 nCi/g
Radioactivity in Plasma ([7]; 12 h after IV administration): 0.8 ± 0.2 nCi/mL
Radioactivity in Small Intestine ([7]; 12 h after IV administration): 41 ± 4.9 nCi/g
Radioactivity in Spleen ([7]; 12 h after IV administration): 77 ± 11 nCi/g
Radioactivity in Bone Marrow ([7]; 24 h after IV administration): 41 ± 6.8 nCi/g
Radioactivity in Heart ([7]; 24 h after IV administration): 24 ± 2.6 nCi/g
Radioactivity in Large Intestine ([7]; 24 h after IV administration): 48 ± 34 nCi/g
Radioactivity in Liver ([7]; 24 h after IV administration): 43 ± 4.0 nCi/g
Radioactivity in Lungs ([7]; 24 h after IV administration): 962 ± 99 nCi/g
Radioactivity in Plasma ([7]; 24 h after IV administration): 0.6 ± 0.1 nCi/mL
Radioactivity in Small Intestine ([7]; 24 h after IV administration): 47 ± 19 nCi/g
Radioactivity in Spleen ([7]; 24 h after IV administration): 85 ± 8.6 nCi/g
